Measurements from US11603475B2, “Antifouling article” (I-Tech AB, priority 2017, dated 2023).

Experiments:
[1] = stirring
Experimental: This example investigated the solubility of SELEKTOPE® (I-Tech AB, Mölndal, Sweden) in 1,4-butandiol (Brenntag Nordic AB, Malmö, Sweden). Vials were prepared according to Table 1 and left with stirring.
Vial number 4 was prepared and left with stirring in a same way as vial numbers 1-3.

barnacle cyprid larva = conditions: barnacles; cited from earlier work
tube worms = conditions: in vivo; cited from earlier work
algal growth = conditions: in vivo; cited from earlier work

## Cc1cccc(C(C)c2c[nH]cn2)c1C (racemic) [Medetomidine, (±)-4,5-[1-(2,3-dimethylphenyl)ethyl)-1H-imidazole]
[1]; 97 mg SELEKTOPE in 1.007 g 1,4-butandiol, after 24 hours
  dissolution in vial number 1: all SELEKTOPE® had dissolved
[1]; 206 mg SELEKTOPE in 1.012 g 1,4-butandiol, 48 hours after preparation
  dissolution in vial number 2: all SELEKTOPE® material had dissolved
[1]; 247 mg SELEKTOPE in 1.009 g 1,4-butandiol, 24 hours after preparation (same at 48 hours)
  dissolution in vial number 4: a few non-dissolved grains remaining
[1]; 303 mg SELEKTOPE in 1.024 g 1,4-butandiol, after about 2 hours (same after 24 and 48 hours)
  dissolution in vial number 3: still a lot of non-dissolved SELEKTOPE®
Barnacle cyprid larva
  concentrations that impede larval settlement: 1 to 10 nM
Tube worms
  effect on other hard fouling, such as tube worms: shown effect
Algal growth
  effect on algal growth: no effect on algal growth
